Each block holds one compound with its values, some of them ahead of it.
Key:
AdipoR1 = biological target: T1, AdipoR1 (Homo sapiens, UniProt Q96A54); assay: DHA-d5 / AA-d8 uptake by hASCs overexpressing AdipoR1, LC-MS/MS, with adiporon (FIG. 11); type: cell-based
T1 construct: host or cells: human adipose tissue-derived stem cells (hASC); human primary retinal pigment epithelial (ABC) cells
T1 sequence (Q96A54 1-375): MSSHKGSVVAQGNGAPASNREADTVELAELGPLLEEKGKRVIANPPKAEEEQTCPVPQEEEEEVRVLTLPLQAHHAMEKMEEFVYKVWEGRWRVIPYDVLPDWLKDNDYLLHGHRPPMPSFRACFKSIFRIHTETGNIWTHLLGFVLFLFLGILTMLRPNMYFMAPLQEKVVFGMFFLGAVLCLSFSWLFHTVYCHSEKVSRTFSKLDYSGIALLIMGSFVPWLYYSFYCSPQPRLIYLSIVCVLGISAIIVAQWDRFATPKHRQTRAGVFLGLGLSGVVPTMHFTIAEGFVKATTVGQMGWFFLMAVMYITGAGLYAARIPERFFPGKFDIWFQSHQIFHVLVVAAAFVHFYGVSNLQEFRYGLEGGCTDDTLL
Procedure: Stable clones of hASCs overexpressing AdipoR1 or mCherry following lentivirus transduction, were incubated overnight in the presence or not of DHA-d5 or AA-d8 (1 μM) and vehicle DMSO with various concentrations of AdipoR1 […] adiporon (1-50 μM). […] Compared to DHA-d5 uptake, levels of AA-d8 were extremely low under these conditions.

ischemic stroke = assay: DHA administered icv after ischemic stroke (FIG. 7); type: in vivo, rats
[1] = system: SD male rats, 2 h of MCAo; assay: 2 h MCAo by intraluminal suture, DHA 5 mg/kg IV (FIG. 16-23); type: in vivo
Procedure: (11-12 weeks old); Model: 2 h of MCAo by intraluminal suture; DHA (5 mg/kg) or Saline treatments (IV)—at 3 h from onset of MCAo; BrdU labeling at days 4, 5, 6; Immunohistochemistry on week 2

[2] = system: human adipose tissue derived stem cells; assay: Chemical transdifferentiation of stem cells into neurons with DHA (FIG. 12); type: cell-based; settings: 24 hours, induction media containing DHA (504) vs induction medium alone
Procedure: Images were taken 24 hours following incubation in the presence of induction media containing or not containing DHA (504).

[3] = system: SD male rats, 2 h of MCAo; settings: DHA systemically injected; reference 8; cited from earlier work
[4] = system: neurons and neural stem/progenitor cells; settings: cited from earlier work
[5] = DHA 5 mg/kg IV, immunohistochemistry on week 2

- effect on DHA-d5 uptake of AdipoR1 transduced cells (AdipoR1; adiporon 1-50 μM, 1 μM DHA-d5 overnight): further increased
SMILES: O=C(COc1ccc(C(=O)c2ccccc2)cc1)NC1CCN(Cc2ccccc2)CC1 [adiporon]

SMILES: CC/C=C\C/C=C\C/C=C\C/C=C\C/C=C\C/C=C\CCC(=O)O [DHA, 4,7,10,13,16,19-docosahexanoic acid]
- ischemic brain damage (ischemic stroke; DHA at the site where GESC would be administered (icv), 7 days): reduced
- behavioral functions (ischemic stroke; DHA icv, 7 days): improves
- protection by DHA administered icv (ischemic stroke; icv): protective
- total neurologic deficits ([1]; DHA 5 mg/kg IV at 3 h from onset of MCAo vs saline): improved
- cortical infarct volume ([1]; DHA 5 mg/kg IV, histopathology): reduced
- total infarct volume ([1]; DHA 5 mg/kg IV, histopathology): reduced
- BrdU+/DCX+ cells in cortex, SVZ and DG [1, 5]: increased
- BrdU+/NeuN+ cells in cortex, SVZ and DG [1, 5]: increased
- BrdU+/ki-67+ cells in cortex, SVZ and DG [1, 5]: increased
- neurogenesis in the DG, SVZ and peri-infarct area ([1]; proliferation, differentiation and migration of neural stem cells): increased
- infarct volume ([1]; rat, in vivo): reduced
- neurobehavioral recovery ([1]; rat, in vivo): promoted
- percentage of morphologically mature neurons [2]: strongly increased
- neuroprotection against ischemic stroke [3]: neuroprotective
- neurite growth, synaptogenesis, synaptic protein expression and synaptic functions in hippocamal neuron ([4]; Cao, D et al., 2009): promotes
- neurite outgrowth ([4]; DHA supplementation, L. Dagai et al., 2009): accelerated
- neuronal differentiation of neural stem cells ([4]; M. Katakura et al., 2009): enhances
- number of neurons derived from neural stem/progenitor cells ([4]; Nobuyuki Sakayoti et al., 2011): increases

- levels of AA-d8 compared to DHA-d5 uptake (AdipoR1; 1 μM AA-d8 overnight in hASCs): extremely low
SMILES: CCCCC/C=C\C/C=C\C/C=C\C/C=C\CCCC(=O)O [AA-d8]
